# Assay results: patent publication US6620325B2, “Purification process for cyclosporin” (Novartis AG, priority 1996, dated 2003)
# Experiment: Distribution coefficient in n-heptane/isopropanol/water phase system
# Format: physicochemical
# Settings: lighter phase about 90% n-heptane/10% isopropanol; heavier phase about 32% isopropanol/68% water
# From the text: The present applicants have found an n-heptane/isopropanol/water system to be effective for purifying 33-epi-chloro-33-desoxyascomycin. In one embodiment, the following phase system is used to purify 33-epi-chloro-33-desoxyascomycin: the lighter phase comprises a mixture in weight-% of about 90% n-heptane, e.g. 89%, and about 10% isopropanol, e.g. 11%; the heavier hase comprises a mixture of about 32% isopropanol, e.g. 31%, and about 68% water, e.g. 69%.
# The distribution coefficient is defined herein as the ratio of the concentration (in g/unit volume) of product in the lighter phase to the concentration (in g/unit volume) of product in the heavier aqueous phase at 40° C. The following distribution coefficients are obtained for cyclosporins between 75% n-heptane /25% acetone as lighter organic phase, and 50% acetone 50% water as heavier aqueous phase:
# The distribution coefficient for 33-epi-chloro-33-desoxyascomycin is found to be around 7.6 using the above n-heptane/isopropanol/water phase system. The selectivity of ascomycin derivative side product to 33-epi-chloro-33-desoxyascomycin is found to be approximately 1.44.
row,Compound,Distribution coefficient
1,CC[C@@H]1/C=C(\C)C[C@H](C)C[C@H](OC)[C@H]2O[C@@](O)(C(=O)C(=O)N3CCCC[C@H]3C(=O)O[C@H](/C(C)=C/[C@@H]3CC[C@H](Cl)[C@H](OC)C3)[C@H](C)[C@@H](O)CC1=O)[C@H](C)C[C@@H]2OC [33-epi-chloro-33-desoxyascomycin],around 7.6

# Experiment: Distribution coefficient of cyclosporins between lighter organic phase and heavier aqueous phase (n-heptane/acetone/water)
# Format: physicochemical
# Settings: conc. in lighter phase / conc. in heavier aqueous phase at 40° C.; 75% n-heptane/25% acetone vs 50% acetone/50% water
# Procedure: The distribution coefficient is defined herein as the ratio of the concentration (in g/unit volume) of product in the lighter phase to the concentration (in g/unit volume) of product in the heavier aqueous phase at 40° C.
row,Compound,Distribution coefficient (to one decimal place)
1,C/C=C/C[C@@H](C)[C@@H](O)[C@H]1C(=O)N[C@@H](C)C(=O)N(C)CC(=O)N(C)[C@@H](CC(C)C)C(=O)N[C@@H](C(C)C)C(=O)N(C)[C@@H](CC(C)C)C(=O)N[C@@H](C)C(=O)N[C@H](C)C(=O)N(C)[C@@H](CC(C)C)C(=O)N(C)[C@@H](CC(C)C)C(=O)N(C)[C@@H](C(C)C)C(=O)N1C [Cyclosporin B],0.4
2,C/C=C/C[C@@H](C)[C@@H](O)[C@H]1C(=O)N[C@@H](CCC)C(=O)N(C)CC(=O)N(C)[C@@H](CC(C)C)C(=O)N[C@@H](C(C)C)C(=O)N(C)[C@@H](CC(C)C)C(=O)N[C@@H](C)C(=O)N[C@H](C)C(=O)N(C)[C@@H](CC(C)C)C(=O)N(C)[C@@H](CC(C)C)C(=O)N(C)[C@@H](C(C)C)C(=O)N1C [Cyclosporin G],1.3
3,"CCCC[C@@H](C)[C@@H](O)[C@H]1C(=O)N[C@@H](CC)C(=O)N(C)CC(=O)N(C)[C@@H](CC(C)C)C(=O)N[C@@H](C(C)C)C(=O)N(C)[C@@H](CC(C)C)C(=O)N[C@@H](C)C(=O)N[C@H](C)C(=O)N(C)[C@@H](CC(C)C)C(=O)N(C)[C@@H](CC(C)C)C(=O)N(C)[C@@H](C(C)C)C(=O)N1C [Cyclosporin Dihydro-A, dihydro-Cyclosporin A]",1.0
4,C/C=C/C[C@@H](C)[C@@H](O)[C@@H]1NC(=O)[C@H](C(C)C)N(C)C(=O)[C@H](CC(C)C)N(C)C(=O)[C@H](CC(C)C)N(C)C(=O)[C@@H](C)NC(=O)[C@H](C)NC(=O)[C@H](CC(C)C)N(C)C(=O)[C@H](C(C)C)NC(=O)[C@H](CC(C)C)N(C)C(=O)CN(C)C(=O)[C@H](CC)NC1=O [Cyclosporin L],0.5
5,C/C=C/C[C@@H](C)[C@@H](O)[C@H]1C(=O)N[C@@H]([C@@H](C)O)C(=O)N(C)CC(=O)N(C)[C@@H](CC(C)C)C(=O)N[C@@H](C(C)C)C(=O)N(C)[C@@H](CC(C)C)C(=O)N[C@@H](C)C(=O)N[C@H](C)C(=O)N(C)[C@@H](CC(C)C)C(=O)N(C)[C@@H](CC(C)C)C(=O)N(C)[C@@H](C(C)C)C(=O)N1C [Cyclosporin C],0.3
6,C/C=C/C[C@@H](C)[C@@H](O)[C@H]1C(=O)N[C@@H](C(C)C)C(=O)N(C)CC(=O)N(C)[C@@H](CC(C)C)C(=O)N[C@@H](C(C)C)C(=O)N(C)[C@@H](CC(C)C)C(=O)N[C@@H](C)C(=O)N[C@H](C)C(=O)N(C)[C@@H](CC(C)C)C(=O)N(C)[C@@H](CC(C)C)C(=O)N(C)[C@@H](C(C)C)C(=O)N1C [Cyclosporin D],1.7
7,C/C=C/C[C@@H](C)[C@@H](O)[C@H]1C(=O)N[C@@H](CC)C(=O)N(C)CC(=O)N(C)[C@@H](CC(C)C)C(=O)N[C@@H](C(C)C)C(=O)N[C@@H](CC(C)C)C(=O)N[C@@H](C)C(=O)N[C@H](C)C(=O)N(C)[C@@H](CC(C)C)C(=O)N(C)[C@@H](CC(C)C)C(=O)N(C)[C@@H](C(C)C)C(=O)N1C [Cyclosporin U],0.6
